The test system of one test is HCT116 WT cells. Briefly: HCT116 WT cell line proliferation (CellTiter-Glo cell viability, 6 days). The following applies: HCT116 WT (parent) cells, 6 days of treatment, CellTiter-Glo cell viability, read-out: HCT-116 WT IC50. It counts as cell-based. The procedure:
(§1) To assess selective anti-proliferative activity of compounds of the invention in cells that have loss expression of MTAP, an HCT-116 isogenic cell line pair was utilized where one cell line was engineered to genetically knockout both MTAP alleles. Cell viability was then assessed in both the parent HCT-116 cell line and the MTAP null cell line after 6 days of treatment with compounds of the present invention. Selective anti-proliferative activity in the MTAP null cell line indicates MTA-cooperative inhibition of PRMT5 and ability to inhibit growth of cancer cells that have loss of MTAP.
(§2) HCT116 MTAP null and WT cells were seeded in 96-well tissue culture plates in RPMI 1640 media+10% fetal bovine serum. Plates were incubated overnight at 37° C. and 5% CO2. Cells were then treated with an 8- or 9-point serial dilution of compound, using a top concentration of 1, or 10 μM, 1:3 serial dilution steps and, a DMSO-only control. Cells were incubated in the presence of drug for 6 days. Effects on cell viability were measured with the CellTiter-Glo® Luminescent Cell Viability Assay (Promega) per manufacturer's recommendation. Assay plates were read on an EnVision™ Multilabel Reader using the Ultra-Sensitive luminescence module. IC50 values were calculated with GraphPad Prism v 5.01 using symmetrical sigmoidal dose-response least squares fit with Hill slope fixed to −1 and top constrain to 100% or GeneData Screener using a 4-parameter logistic model to fit dose response curves.
(§3) Alternatively, compounds could be assayed with a 384 well plate format:
(§4) Compounds were pre-spotted into 384 well plates with a 22-point serial dilution of compound, using a top concentration of 10 or 50 μM, 1:2 serial dilution steps and, a DMSO-only control. HCT116 MTAP null and WT cells were then seeded as above and after 6 days effects on cell viability were measured with the CellTiter-Glo® Luminescent Cell Viability Assay (Promega). Assay plates were read as above and IC50 values were calculated with GeneData Screener using a 4-parameter logistic model to fit dose response curves. The reported IC50 represents the value where the curve transits 50% of control.
On the technique in general: Cellular ATP, detected with luciferase, serves as a proxy for viable cell number.

The subject of another test is HCT116 MTAP null cells. Kind of test: HCT116 MTAP null cell line proliferation (CellTiter-Glo cell viability, 6 days). Type of test: cell-based. The following applies: HCT116 MTAP null cells, 6 days of treatment, CellTiter-Glo cell viability, read-out: HCT-116 MTAP null IC50. The procedure: as §1, §2, §3, §4

The structures appear in SMILES notation. Like-named read-outs stand apart in the source and are kept apart here. A value given as a limit tells only on which side of the number the result lay.

As to `C[C@H]1COC[C@@H](c2ccc(C(F)(F)F)cn2)N1C(=O)c1cc2c3c(c(N)nc2cc1F)COC3` (mixture of isomers) [Example 304, (4-amino-7-fluoro-1,3-dihydrofuro[3,4-c]quinolin-8-yl)((3R,5S)-3-methyl-5-(5-(trifluoromethyl)-2-pyridinyl)-4-morpholinyl)methanone and (4-amino-7-fluoro-1,3-dihydrofuro[3,4-c]quinolin-8-yl)((3S,5R)-3-methyl-5-(5-(trifluoromethyl)-2-pyridinyl)-4-morpholinyl)methanone], the IC50 (commonly the concentration that gives 50% inhibition) was determined as 0.572 µM in the test on HCT116 WT cells (Homo sapiens, HCT-116, 144 h) and 0.71 µM with HCT116 MTAP null cells (HCT116-MTAP null, 144 h).
Take `CC1OCc2c1c(N)nc1cnc(C(=O)N3C(C)COCC3c3ccc(OC(F)F)nn3)cc21` (mixture of isomers) [Example 316, ((3R)-4-amino-3-methyl-1,3-dihydrofuro[3,4-c][1,7]naphthyridin-8-yl)((3R,5S)-3-(6-(difluoromethoxy)-3-pyridazinyl)-5-methyl-4-morpholinyl)methanone and ((3R)-4-amino-3-methyl-1,3-dihydrofuro[3,4-c][1,7]naphthyridin-8-yl)((3S,5R)-3-(6-(difluoromethoxy)-3-pyridazinyl)-5-methyl-4-morpholinyl)methanone]: the values for the concentration for half-maximal inhibition (IC50) with HCT116 WT cells and with HCT116 MTAP null cells were 1.13 µM and 0.035 µM, respectively.
Consider `CC1OCc2c1c(N)nc1ccc(C(=O)N3C(C)COCC3c3ccc(OC(F)F)nn3)cc21` (mixture of isomers) [Example 317, ((3R)-4-amino-3-methyl-1,3-dihydrofuro[3,4-c]quinolin-8-yl)((3R,5S)-3-(6-(difluoromethoxy)-3-pyridazinyl)-5-methyl-4-morpholinyl)methanone and ((3R)-4-amino-3-methyl-1,3-dihydrofuro[3,4-c]quinolin-8-yl)((3S,5R)-3-(6-(difluoromethoxy)-3-pyridazinyl)-5-methyl-4-morpholinyl)methanone], for which the IC50 worked out at 2.37 µM in the test on HCT116 WT cells and 0.053 µM in the test with HCT116 MTAP null cells.
`CC(C)Oc1ccc([C@H]2COCCN2C(=O)c2cc3c4c(c(N)nc3cn2)COC4)cn1` (mixture of isomers) [Example 323, (4-amino-1,3-dihydrofuro[3,4-c][1,7]naphthyridin-8-yl)((3R)-3-(6-(2-propanyloxy)-3-pyridinyl)-4-morpholinyl)methanone and (4-amino-1,3-dihydrofuro[3,4-c][1,7]naphthyridin-8-yl)((3S)-3-(6-(2-propanyloxy)-3-pyridinyl)-4-morpholinyl)methanone]: the IC50 in the test on HCT116 MTAP null cells (HCT116-MTAP null, 144 h) stood at 0.397 µM.
For `CCOc1ccc(C2COCCN2C(=O)c2cc3c4c(c(N)nc3cn2)[C@@H](C)OC4)nn1` (mixture of isomers) [Example 325, ((3R)-4-amino-3-methyl-1,3-dihydrofuro[3,4-c][1,7]naphthyridin-8-yl)((3R)-3-(6-ethoxy-3-pyridazinyl)-4-morpholinyl)methanone and ((3R)-4-amino-3-methyl-1,3-dihydrofuro[3,4-c][1,7]naphthyridin-8-yl)((3S)-3-(6-ethoxy-3-pyridazinyl)-4-morpholinyl)methanone], the IC50 in the test with HCT116 WT cells (Homo sapiens, HCT-116, 144 h) was more than 10 µM; with HCT116 MTAP null cells (HCT116-MTAP null, 144 h) it was 0.771 µM.
As for `CC1OCc2c1c(N)nc1cnc(C(=O)N3C(C)COCC3c3ccc(OC(F)(F)F)cc3F)cc21` (mixture of isomers) [Example 330, ((3S)-4-amino-3-methyl-1,3-dihydrofuro[3,4-c][1,7]naphthyridin-8-yl)((3R,5S)-3-(2-fluoro-4-(trifluoromethoxy)phenyl)-5-methyl-4-morpholinyl)methanone and ((3S)-4-amino-3-methyl-1,3-dihydrofuro[3,4-c][1,7]naphthyridin-8-yl)((3S,5R)-3-(2-fluoro-4-(trifluoromethoxy)phenyl)-5-methyl-4-morpholinyl)methanone], the IC50 was 20.9 µM with HCT116 WT cells and 0.403 µM in the test with HCT116 MTAP null cells.
On the same counts, the results for `CC1OCc2c1c(N)nc1ccc(C(=O)N3C(C)COCC3c3ccc(C(F)(F)F)cc3F)cc21` (mixture of isomers) [Example 331, ((3R)-4-amino-3-methyl-1,3-dihydrofuro[3,4-c]quinolin-8-yl)((3R,5S)-3-(2-fluoro-4-(trifluoromethyl)phenyl)-5-methyl-4-morpholinyl)methanone and ((3R)-4-amino-3-methyl-1,3-dihydrofuro[3,4-c]quinolin-8-yl)((3S,5R)-3-(2-fluoro-4-(trifluoromethyl)phenyl)-5-methyl-4-morpholinyl)methanone] are 0.897 µM and 0.035 µM.
In the same order, the values of `CC1OCc2c1c(N)nc1cnc(C(=O)N3C(C)COCC3c3ccc(C(F)(F)F)cc3F)cc21` (mixture of isomers) [Example 332, ((3S)-4-amino-3-methyl-1,3-dihydrofuro[3,4-c][1,7]naphthyridin-8-yl)((3R,5S)-3-(2-fluoro-4-(trifluoromethyl)phenyl)-5-methyl-4-morpholinyl)methanone and ((3S)-4-amino-3-methyl-1,3-dihydrofuro[3,4-c][1,7]naphthyridin-8-yl)((3S,5R)-3-(2-fluoro-4-(trifluoromethyl)phenyl)-5-methyl-4-morpholinyl)methanone] are 23.3 µM and 0.536 µM.
In the same order, the values of `CC1OCc2c1c(N)nc1cnc(C(=O)N3CCOCC3c3ccc(C(F)(F)C(F)(F)F)cc3)cc21` (mixture of isomers) [Example 337, ((3R)-4-amino-3-methyl-1,3-dihydrofuro[3,4-c][1,7]naphthyridin-8-yl)((3S)-3-(4-(pentafluoroethyl)phenyl)-4-morpholinyl)methanone and ((3S)-4-amino-3-methyl-1,3-dihydrofuro[3,4-c][1,7]naphthyridin-8-yl)((3S)-3-(4-(pentafluoroethyl)phenyl)-4-morpholinyl)methanone] are 1.47 µM and 0.03 µM.
On to `C[C@@H]1COC[C@H](c2cc(F)cc(F)c2)N1C(=O)c1cc2c3c(c(N)nc2cn1)[C@@H](C)OC3` (racemic) [Example 324, ((3R)-4-amino-3-methyl-1,3-dihydrofuro[3,4-c][1,7]naphthyridin-8-yl)((3R,5S)-3-(3,5-difluorophenyl)-5-methyl-4-morpholinyl)methanone and ((3R)-4-amino-3-methyl-1,3-dihydrofuro[3,4-c][1,7]naphthyridin-8-yl)((3S,5R)-3-(3,5-difluorophenyl)-5-methyl-4-morpholinyl)methanone], for which the IC50 with HCT116 MTAP null cells (HCT116-MTAP null, 144 h) came out at 0.186 µM.
On the same count and under the same terms, under `Nc1nc2ccc(C(=O)N3CCOCC3c3ccccc3Cl)cc2c2c1COC2` (racemic) [Example 360, (4-amino-1,3-dihydrofuro[3,4-c]quinolin-8-yl)-[rac-(3S)-3-(2-chlorophenyl)morpholin-4-yl]methanone] stands 1.05 µM.
Same read-out and setting: under `Cc1ccc(C2COCCN2C(=O)c2ccc3nc(N)c4c(c3c2)COC4)cc1` (racemic) [Example 361, (4-amino-1,3-dihydrofuro[3,4-c]quinolin-8-yl)-[rac-(3S)-3-(p-tolyl)morpholin-4-yl]methanone] stands 0.839 µM.
On the same count and under the same terms, under `Nc1nc2ccc(C(=O)N3CCOCC3c3cccc(Br)c3)cc2c2c1COC2` (racemic) [Example 366, (4-amino-1,3-dihydrofuro[3,4-c]quinolin-8-yl)-[rac-(3S)-3-(3-bromophenyl)morpholin-4-yl]methanone] stands 0.363 µM; under `Nc1nc2ccc(C(=O)N3CCOCC3c3ccc(Br)cc3)cc2c2c1COC2` (racemic) [Example 367, (4-amino-1,3-dihydrofuro[3,4-c]quinolin-8-yl)-[rac-(3S)-3-(4-bromophenyl)morpholin-4-yl]methanone], 0.368 µM; under `Nc1nc2cnc(C(=O)N3CCOCC3c3ccc(C4CC4)nc3)cc2c2c1COC2` (racemic) [Example 495, (4-amino-1,3-dihydrofuro[3,4-c][1,7]naphthyridin-8-yl)-[rac-(3S)-3-(6-cyclopropyl-3-pyridyl)morpholin-4-yl]methanone], 0.502 µM.
For the compound `CC1(C)CN(C(=O)c2ccc3nc(N)c4c(c3c2)COC4)[C@@H](c2ccc(C(F)(F)F)cn2)CO1` (single isomer, unassigned) [Example 594], the IC50 in the test with HCT116 MTAP null cells (HCT116-MTAP null, 144 h) amounted to 0.099 µM.

These data come from patent US11845760B2, “PRMT5 inhibitors” (AMGEN INC., priority 2020, dated 2023).
